# Reference: US6424857B1, “Use of acousto-optical and sonoluminescene contrast agents” (Amersham Health AS, priority 1997, dated 2002)
# Assay: Solubility in water and sesame oil
smiles,measurement,setting,value
Oc1ccc2ccccc2c1N=Nc1ccc(N=Nc2ccccc2)cc1 [Sudan III],solubility in sesame oil,sesame oil,soluble
same,solubility in water,water,very water insoluble
